# Patent US5518735A, “Meta-substituted phenylalanine derivatives” (priority 1990, dated 1996)
# pKi: −log10 of the molar value. Where a name gives a salt, the structure may show the parent alone.
# Assays:
# factor XIIa = target: T1, factor XIIa (Homo sapiens, UniProt P00748); test: Inhibition of factor XIIa (Ki); type: biochemical; conditions: Table 26
# T1 construct: glandular kallikrein, factor XIIa and plasma kallikrein
# T1 sequence (P00748 373-615 limits assumed): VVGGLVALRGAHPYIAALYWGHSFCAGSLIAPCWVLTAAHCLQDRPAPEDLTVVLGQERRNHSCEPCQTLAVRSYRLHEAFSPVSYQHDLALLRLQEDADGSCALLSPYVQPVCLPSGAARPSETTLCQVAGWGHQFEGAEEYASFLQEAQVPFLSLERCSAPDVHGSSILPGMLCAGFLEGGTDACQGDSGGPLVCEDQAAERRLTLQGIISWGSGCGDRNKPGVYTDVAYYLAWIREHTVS
# [1] = Plasma concentration in rats after intravenous administration (HPLC)
# Description: (§1) For the pharmacokinetic characterization, the plasma concentration of selected derivatives was determined in rats after intravenous (i.v.), subcutaneous (s.c.) and peroral (p.o.) application according to the following three-step procedure:
# (§2) 1. A physiological NaCl solution of the substance to be tested was submitted to high pressure liquid chromatography (HPLC) in order to determine its characteristic substance-specific retention time with the chosen test conditions.
# (§3) 2. The substance to be tested was diluted in vitro in rat plasma. This solution was also submitted to HPLC to see whether the characteristic peak of the substance once again appeared at the substance-specific retention time.
# (§4) 3. […] Blood samples were taken at time intervals of 15 minutes, from which plasma samples were prepared by centrifugation; those samples were also submitted to HPLC to see whether the characteristic peak of the substance appeared again at the substance-specific retention time.
# [2] = Plasma concentration in rats after subcutaneous administration (HPLC); conditions: rat, plasma, sc, 5 mg/kg
# plasma kallikrein = target: T2, plasma kallikrein (Homo sapiens, UniProt P03952); test: Inhibition of plasma kallikrein (Ki); type: biochemical; conditions: Table 26
# T2 construct: glandular kallikrein, factor XIIa and plasma kallikrein
# glandular kallikrein = glandular kallikrein (Sus scrofa, UniProt P00752); test: Inhibition of glandular kallikrein (Ki); type: biochemical; conditions: Table 26; read-out: Ki, Gland. Kallikrein
# trypsin = target: T3, trypsin (Bos taurus, UniProt P00760); test: Inhibition of trypsin (Ki); type: biochemical; conditions: Table 26
# T3 sequence (P00760 24-246): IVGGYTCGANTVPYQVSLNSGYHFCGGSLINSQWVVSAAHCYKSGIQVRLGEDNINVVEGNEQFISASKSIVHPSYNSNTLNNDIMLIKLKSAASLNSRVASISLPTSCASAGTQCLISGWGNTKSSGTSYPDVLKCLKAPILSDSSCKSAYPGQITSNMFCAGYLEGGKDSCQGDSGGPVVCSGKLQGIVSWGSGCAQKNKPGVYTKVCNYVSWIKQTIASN
# in vivo = conditions: mouse
# factor Xa = factor Xa (Bos taurus, UniProt P00743); test: Inhibition of factor Xa (dissociation constant Ki); type: biochemical; conditions: Tables 19-25; read-out: Ki, Factor Xa
# [3] = test system: thrombin-induced plasma coagulation; test: Anticoagulant effect in vivo, thrombin-induced plasma coagulation of plasma of treated rats; parameters: species or system rat; conditions: after i.v., s.c. and p.o. administration; FIG. 5
# Description: After i.v., s.c. and p.o. administration of the compounds to be tested, the anticoagulant effect was determined in plasma of experimental animals (illustrated for compound 123 in FIG. 5).
# [4] = Plasma concentration in rats after oral administration (HPLC); conditions: rat, plasma, po, 100 mg/kg
# Description: as §1, §2, §3, §4
# tPA = tPA (Homo sapiens, UniProt P00750); test: Inhibition of tPA (Ki); type: biochemical; conditions: Table 26
# thrombin = thrombin (Bos taurus, UniProt P00735); test: Inhibition of thrombin (dissociation constant Ki); type: biochemical
# plasmin = target: T4, plasmin (Homo sapiens, UniProt P00747); test: Inhibition of plasmin (Ki); type: biochemical; conditions: Table 26
# T4 construct: trypsin and the related enzymes thrombin, plasmin, factor Xa, tPA
# T4 sequence (P00747 581-810 limits assumed): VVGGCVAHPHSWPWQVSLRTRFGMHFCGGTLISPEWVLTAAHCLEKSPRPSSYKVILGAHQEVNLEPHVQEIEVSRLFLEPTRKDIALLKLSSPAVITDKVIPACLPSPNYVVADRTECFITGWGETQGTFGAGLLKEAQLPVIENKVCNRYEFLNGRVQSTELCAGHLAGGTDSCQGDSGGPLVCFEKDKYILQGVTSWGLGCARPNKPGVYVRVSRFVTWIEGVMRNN
# T4 sequence (P00747 97-580 partner limits assumed): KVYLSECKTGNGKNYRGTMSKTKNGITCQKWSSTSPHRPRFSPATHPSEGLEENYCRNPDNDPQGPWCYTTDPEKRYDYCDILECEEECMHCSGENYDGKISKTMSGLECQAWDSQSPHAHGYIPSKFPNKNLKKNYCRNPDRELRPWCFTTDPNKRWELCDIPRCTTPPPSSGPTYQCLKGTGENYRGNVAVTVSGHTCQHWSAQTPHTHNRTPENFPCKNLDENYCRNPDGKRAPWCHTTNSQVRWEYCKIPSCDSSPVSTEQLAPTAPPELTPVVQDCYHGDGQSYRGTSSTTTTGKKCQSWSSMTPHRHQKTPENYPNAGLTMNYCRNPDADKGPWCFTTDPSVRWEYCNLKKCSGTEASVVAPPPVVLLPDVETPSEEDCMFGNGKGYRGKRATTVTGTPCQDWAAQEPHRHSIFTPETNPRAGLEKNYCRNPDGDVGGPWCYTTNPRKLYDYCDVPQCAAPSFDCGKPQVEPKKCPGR
# Sequence of glandular kallikrein (P00752 8-246): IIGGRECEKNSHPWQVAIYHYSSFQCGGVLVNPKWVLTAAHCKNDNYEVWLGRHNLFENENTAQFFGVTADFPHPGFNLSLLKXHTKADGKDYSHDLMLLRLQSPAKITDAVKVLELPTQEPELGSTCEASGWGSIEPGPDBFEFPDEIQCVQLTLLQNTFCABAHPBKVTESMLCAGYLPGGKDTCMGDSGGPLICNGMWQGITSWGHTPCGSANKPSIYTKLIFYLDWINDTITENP
# T2 sequence (P03952 391-638 limits assumed, species assumed): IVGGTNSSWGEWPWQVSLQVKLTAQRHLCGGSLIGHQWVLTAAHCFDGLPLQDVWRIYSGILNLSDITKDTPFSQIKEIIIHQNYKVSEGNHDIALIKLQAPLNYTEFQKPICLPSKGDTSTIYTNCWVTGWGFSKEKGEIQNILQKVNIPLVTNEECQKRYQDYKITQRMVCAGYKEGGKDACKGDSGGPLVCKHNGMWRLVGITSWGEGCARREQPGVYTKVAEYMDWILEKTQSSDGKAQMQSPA
# T2 sequence (P03952 20-390 partner limits assumed, species assumed): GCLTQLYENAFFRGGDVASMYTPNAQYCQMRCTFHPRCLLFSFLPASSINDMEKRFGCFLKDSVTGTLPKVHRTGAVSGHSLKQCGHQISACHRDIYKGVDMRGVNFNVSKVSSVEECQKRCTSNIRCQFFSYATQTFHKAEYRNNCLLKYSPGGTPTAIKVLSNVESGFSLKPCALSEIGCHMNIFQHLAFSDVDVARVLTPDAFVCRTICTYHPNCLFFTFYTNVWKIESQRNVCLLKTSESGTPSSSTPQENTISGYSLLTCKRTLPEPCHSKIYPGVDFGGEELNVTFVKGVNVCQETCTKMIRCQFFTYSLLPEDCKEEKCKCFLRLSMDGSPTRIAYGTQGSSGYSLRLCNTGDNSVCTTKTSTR
# Sequence of tPA (P00750 36-562): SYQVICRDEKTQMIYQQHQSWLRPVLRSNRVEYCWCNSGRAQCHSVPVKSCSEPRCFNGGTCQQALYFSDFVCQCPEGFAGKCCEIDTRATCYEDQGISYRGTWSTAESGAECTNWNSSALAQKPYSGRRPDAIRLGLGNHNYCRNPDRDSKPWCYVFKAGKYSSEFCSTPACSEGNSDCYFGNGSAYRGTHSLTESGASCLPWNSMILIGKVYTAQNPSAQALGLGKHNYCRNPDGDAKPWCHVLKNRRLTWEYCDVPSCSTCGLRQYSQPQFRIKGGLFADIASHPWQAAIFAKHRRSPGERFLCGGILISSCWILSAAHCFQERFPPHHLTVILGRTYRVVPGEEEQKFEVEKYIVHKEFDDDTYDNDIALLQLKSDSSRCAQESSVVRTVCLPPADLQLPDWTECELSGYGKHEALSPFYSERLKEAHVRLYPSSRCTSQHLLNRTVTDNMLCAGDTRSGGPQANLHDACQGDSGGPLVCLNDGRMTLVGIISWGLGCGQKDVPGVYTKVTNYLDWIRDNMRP
# Sequence of factor Xa (P00743 234-492 limits assumed): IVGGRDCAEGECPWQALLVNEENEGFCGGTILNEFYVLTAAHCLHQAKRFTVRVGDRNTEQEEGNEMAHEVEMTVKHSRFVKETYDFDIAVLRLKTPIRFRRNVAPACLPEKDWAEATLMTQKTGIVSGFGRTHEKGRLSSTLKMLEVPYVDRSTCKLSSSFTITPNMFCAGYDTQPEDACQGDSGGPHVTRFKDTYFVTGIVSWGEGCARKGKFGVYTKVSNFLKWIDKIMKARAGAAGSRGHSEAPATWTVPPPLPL
# Sequence of factor Xa (P00743 41-180 partner limits assumed): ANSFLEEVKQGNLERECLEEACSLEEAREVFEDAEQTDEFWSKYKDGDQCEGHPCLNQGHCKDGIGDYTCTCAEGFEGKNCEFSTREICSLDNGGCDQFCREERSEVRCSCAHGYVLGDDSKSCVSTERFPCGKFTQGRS
smiles,measurement,setting,value
"N=C(N)c1cccc(C[C@H](NS(=O)(=O)c2ccc3ccccc3c2)C(=O)N2CCC[C@@H]2C(=O)O)c1 [Compound 123, N-α-(2-Naphthylsulfonyl)-3-amidino-(L)-phenylalanyl-(D)-proline hydrochloride]",pKi,factor XIIa,< 3.00
same,pharmacokinetic properties,"[1]; in words, compared with NAPAP",improved pharmacokinetic properties
same,Concentration in plasma,"[1]; rat, i.v. 1 mg/kg, 240 min",0 ng/mL
same,concentration at 2 min,"[1]; rat, plasma, iv, 1 mg/kg",2330 ng/mL
same,concentration at 5 min,"[1]; rat, plasma, iv, 1 mg/kg",1180 ng/mL
same,concentration at 10 min,"[1]; rat, plasma, iv, 1 mg/kg",660 ng/mL
same,concentration at 0.25 h,"[1]; rat, plasma, iv, 1 mg/kg",440 ng/mL
same,concentration at 0.5 h,"[1]; rat, plasma, iv, 1 mg/kg",260 ng/mL
same,concentration at 0.75 h,"[1]; rat, plasma, iv, 1 mg/kg",185 ng/mL
same,concentration at 1 h,"[1]; rat, plasma, iv, 1 mg/kg",160 ng/mL
same,concentration at 1.5 h,"[1]; rat, plasma, iv, 1 mg/kg",68 ng/mL
same,concentration at 2 h,"[1]; rat, plasma, iv, 1 mg/kg",32 ng/mL
same,concentration at 3 h,"[1]; rat, plasma, iv, 1 mg/kg",22 ng/mL
same,concentration at 0.25 h,[2],792 ng/mL
same,concentration at 0.5 h,[2],1340 ng/mL
same,concentration at 0.75 h,[2],1380 ng/mL
same,concentration at 1.5 h,[2],1780 ng/mL
same,concentration at 2 h,[2],1600 ng/mL
same,concentration at 3 h,[2],1140 ng/mL
same,concentration at 4 h,[2],927 ng/mL
same,pKi,plasma kallikrein,4.23
same,pKi,glandular kallikrein,< 3.00
same,pKi,trypsin,6.02
same,LD50 at 168 h,in vivo; iv,188 mg/kg
same,LD50 at 168 h,in vivo; po,> 3000 mg/kg
same,pKi,factor Xa,3.66
same,anticoagulant / antithrombin effect in plasma of experimental animals,[3],the antithrombin effect can be detected in the clotting test
same,concentration at 0.25 h,[4],230 ng/mL
same,concentration at 0.5 h,[4],170 ng/mL
same,concentration at 1 h,[4],100 ng/mL
same,concentration at 1.5 h,[4],133 ng/mL
same,concentration at 3 h,[4],96 ng/mL
same,concentration at 4 h,[4],67 ng/mL
same,pKi,tPA,3.52
same,pKi,thrombin,6.17
same,pKi,plasmin,4.02
